Assay results taken from patent US20250281496A1, “METHODS OF TREATING NEUROPATHY USING FORETINIB AND COMPOSITIONS THEREOF” (INDIANA UNIVERSITY RESEARCH AND TECHNOLOGY CORPORATION, priority 2022, published 2025).
Entries after “also recorded” stand apart in the source; their conditions may differ.

Assays:
Rat sympathetic neurons = experiment: NGF withdrawal in compartmented cultures of sympathetic neurons; format: cell-based
Method: A) Rat sympathetic neurons grown in compartmented cultures for one week in the presence of NGF were switched into the indicated conditions for 48 h and immunostained for βIII-tubulin (white). Schematics on the left show the configurations used. In the top panels, NGF was maintained in all compartments. In the center and bottom panels, NGF was withdrawn from all compartments. At the bottom panel and 500 nM foretinib (Foret) added to one of the sides and the center compartment. Fluorescence images show βIII-tubulin-positive axons in the sides compartment. At the right, enlarged images of the axons per condition. While the NGF deprived neurons degenerated (axonal beading and degradation in the central panel), Foretinib supplemented (lower panel) axons kept growing Red arrow at the top of the image indicates the distance of the axonal extension during 48 h since NGF withdrawal. Size bar: […].B) MNs were differentiated from healthy human iPS (Line ID 1016A)^62 as described^63. 3 day old MNs were treated with either 1 μM of Thapsigargin (Thaps) or 1 μM Tunicamycin (Tuni) and/or with either 0.5 uM of Foretinib. […] C) Quantitative representation of the results as in B. Error bars represent standard error; *p<0.05; ***p<0.005; t-test. […] E) Quantitative representation of changes in mouse body weight in dependence of the indicated IP daily doses of Foretinib. […]

[1] = system: wt and Sod1^G93A cultured mouse MN; experiment: Survival of trophic factor-deprived cultured mouse motor neurons; format: cell-based
[2] = Pharmacokinetics: blood plasma concentration after single IP injection, mass spectrometry; format: in vivo, mice
Method: A) Quantitative representation of changes in mouse body weight in dependence of the indicated IP daily doses of Foretinib (n=2 per dose). B) Changes in mouse blood plasma concentration of 5 mg/kg IP injected Foretinib during 48 hours after a single injection (n=3).
It is expected that Foretinib will protect against the diabetes-induced loss of terminal axons and ensheathing SC. In our previous study, 30 mg/kg of foretinib was administered via daily gavage for a course of 5 weeks. Although reported as non-toxic, at this dose the drug, along with a strong neuroprotective effect, caused lethargic behavior, ruffled fur and weight loss requiring early termination of the experiment. Due to the substantial prevalence of type 2 diabetes, we will examine the effect of foretinib treatment on type 2 diabetic mice (db/db). To define the maximal tolerable dose, we treated wt mice by daily intraperitoneal (IP) injection of several various dosages of foretinib for 20 days, while assessing the mice weight and behavior. […] Next, to define the pharmacokinetic (PK) characteristics of the drug, we performed a mass spectrometry analysis of blood samples from wt mice treated with 5 mg/kg (n=3 mice per dose per time point). We observed that IP injection of 5 mg/kg of foretinib generated nearly 100 ng/ml blood concentration during first 4 hours, declining by 4 ng/ml/hour (FIG. 7B).

With `COc1cc2c(Oc3ccc(NC(=O)C4(C(=O)Nc5ccc(F)cc5)CC4)cc3F)ccnc2cc1OCCCN1CCOCC1` [Foretinib, N1-[3-Fluoro-4-({6-methoxy-7-[3-(morpholin-4-yl)propoxy]quinolin-4-yl}oxy)phenyl]-N′1-(4-fluorophenyl)cyclopropane-1,1-dicarboxamide] the “axonal growth after NGF withdrawal” value (Rat sympathetic neurons; 500 nM foretinib in center and one side compartment, 48 h, preliminary n=2) was “induced axonal growth, similarly to the NGF containing cultures; also recorded: greater axonal length of the neurons than neurons cultured with NGF”, the “cell body and axonal survival after NGF withdrawal” value (Rat sympathetic neurons; 500 nM foretinib, 48 hours post NGF withdrawal) was “supported cell bodies and axonal survival” and the “survival of trophic factor-deprived motor neurons” value [1] was “induced survival”. For the same compound, the “decline of blood concentration” value ([2]; 5 mg/kg IP single injection, after first 4 hours) was 4 ng/mL/h, the “blood concentration during first 4 hours” value ([2]; 5 mg/kg IP single injection, wt mice, n=3) was ~100 ng/mL and the “blood concentration expressed in molar units” value ([2]; 5 mg/kg IP, conversion of 100 ng/ml) was 160 nM.
